According to patent publication US9579344B2, “Use of nitrite salts in treating tissue damage” (Board of Supervisors of Louisiana State University and …, priority 2009, dated 2017):
Where two headings read alike, the source gives them in different places.

Legend:
[1] = tested on: coronary artery endothelial cells, umbilical vein endothelial cells
Description: (§1) A contained hypoxia tissue culture system was used allowing the long term culturing of cells in hypoxia (24 hrs). A fluorescent plate reader in hypoxic chamber measured NO formation using the fluorescent dye DAF-FM.
(§2) The effect of specific inhibitors of NO production, carboxy PTIO (2-(4-Carboxyphenyl)-4,4,5,5-tetramethylimidazoline-1-oxyl-3-oxide), allopurinol and L-NAME, was also analyzed. […] Results for iliac vein smooth muscle cells are shown in FIGS. 7A, 7B and 8; results for aortic smooth muscle cells are shown in FIGS. 9A, 9B and 10; results for coronary artery cells are shown in FIGS. 11A, 11B and 12, results for umbillical vein cells are shown in FIGS. 13A, 13B and 14.

[2] = tested on: iliac vein smooth muscle cells, aortic smooth muscle cells
Description: as §1, §2

[3] = tested on: ischemic hind limb of B6.BKS-Lepr^db/db diabetic mice; conditions: aged diabetic mice, 165 ug/kg
Description: (§3) B6.BKS-Lepr^db/db diabetic mice were purchased from Jackson's laboratory and housed in the animal center of LSU Health Sciences Center for 6 months. Surgical hind limb ischemia was created in 9 month-old male (Db/Db) type-2 diabetic mice. The mice were anesthetized by isoflurane inhalation and the left groin area was shaved and naired. The left external iliac artery and vein, left femoral artery and vein, left saphenous artery and vein and deep femoral and circumflex arteries and veins were ligated, cut, and excised to obtain a mouse model of critical hind limb ischemia. […] All treatments were performed in a double-blinded manner.
Laser Doppler blood flows were measured using a Vasamedics Laserflo BPM2 device in the gastrocnemius pre-ligation, post-ligation and on days 1, 3, 5, 7, 9, 11, 13, 15, 17, 19 and 21 post-ligation. Blood vessels visible through the skin were avoided to ensure readings indicative of muscle blood flow. Measurements were recorded as milliliter of blood flow per 100 grams of tissue per minute. Percent blood flows were calculated as: a/b××100 where a=ischemic limb average flow and b=non-ischemic limb average flow.

[4] = aged diabetic mice
Description: as §3
Blood glucose measurements were taken using Ascensia Elite blood glucose test strips and a Bayer Glucometer Elite.
Plasma total cholesterol and LDL levels were determined using a Siemens Vista Clinical Chemistry analyzer.

[5] = tested on: ischemic tissue gene expression
Description: (§4) Hind limb ischemia was induced by ligating the left common femoral artery proximal to origin of profunda femoris artery according to Senthilkumar, A., Smith, R. D., Khitha, J., Arora, N., Veerareddy, S., Langston, W., Chidlow, 1H., Jr., Barlow, S. c., Teng, x., Patel, R. P., et al. 2007. Arterioscler Thromb Vasc Biol 27: 1947-1954. Mice were anesthetized with intraperitoneal injection of ketamine (100 mglkg) and xylazine (8 mglkg); surgery was performed under aseptic conditions. The common femoral vein and femoral nerve were dissected away from the artery. Two ligatures were placed in the common femoral artery proximal to the profunda femoris artery and then transected between the two ligations. The incision was then closed and the ligation was immediately verified by laser Doppler measurement of tissue blood flow.
RNA integrity was checked using the Agilent 2100 Bioanalyzer (Agilent Technologies, Palo Alto, Calif.). […] Double stranded cDNA was synthesized from 5 ug total RNA using a Superscript cDNA synthesis Kit (Invitrogen, Carlsbad, Calif.) and purified using the Gene Chip Sample Cleanup Module (Affymetrix, Santa Vlara, Calif.). After biotin-labeling, the cDNA were fragmented at 94° C. and hybridized to the GeneChip® Mouse Genome 430 2.0 Array (Affymetrix), which contains 39,000 fully annotated transcripts of the mouse genome. After washing and staining, the arrays were scanned using GeneChip Scanner 3000 (Affymetrix) and hybridization efficiency determined by housekeeping control and spike control probe sets.
Array data were globally scaled to a target intensity value of 500 to compare individual array experiments. To determine differentially expressed genes between PBS and nitrite treatment, data were log transformed and uploaded into Genesifter program (www.genesifter.net). Identification of significant changes in gene expression were determined using a pair-wise comparison of PBS versus nitrite therapy gene array data at each individual time point with the following criteria: a minimal 2-fold difference in expression with no maximal threshold limit, a hybridization quality cutoff of 1, and an unpaired student t-test between treatment groups followed by Benjamini and Hochberg post test to limit false discovery rates.
The resulting output of network analysis was broken down according to the genetic composition of networks, the biological function of the networks, the number of interrelated network relationships, as well as statistical analysis of individual networks.
Induction of chronic hind limb ischemia was performed according to the method in Example 1. […] Nitrite doses were given once in the morning (8 am) and a second in the afternoon (5 pm) with muscle tissue harvested on the morning of the 4th and 8th days (to give an entire 3 and 7 day period for study). Four muscle specimens from individual mice were harvested per treatment cohort per time point for a total of 16 individual specimens for gene array analysis. Harvested tissue was immediately frozen in liquid nitrogen for subsequent total RNA isolation. Laser doppler blood flow measurements were taken from non-ischemic and ischemic hind limbs prior to tissue collection to determine the amount of ischemic tissue perfusion using a Vasamedics Laserflo BPM2 deep tissue penetrating doppler device. Percent restoration of blood flow was determined by dividing the ischemic hind limb blood flow by the non-ischemic hind limb blood flow and multiplying by 100. Statistical analysis of changes in tissue blood flow between treatment groups at specific time points were performed with an unpaired students t-test using Prism software (Graphpad).

[6] = tested on: ischemic hindlimbs of C57Bl/6J mice; conditions: fluorescence angiograms, 4 seconds blush time, vs PBS
Description: as §4

[7] = tested on: ischemic hindlimbs of aged diabetic mice; conditions: PBS controls showed extensive necrosis and digit loss
Description: as §3

[8] = tested on: C2C12 myoblasts
Description: as §1

[9] = tested on: cultured cells; conditions: hypoxic and normoxic conditions, 100 nM or 1 uM sodium nitrite (FIG. 16)
Description: FIG. 16 depicts the chemiluminescent detection of nitrite/nitric oxide during hypoxia.
as §2

[10] = tested on: gastrocnemius muscles of aged diabetic mice; conditions: non-ischemic tissues of aged diabetic mice (FIG. 21B)
Description: as §3
The gastrocnemius muscles from ischemic and non-ischemic hind limbs were removed, dissected, and embedded in OCT freezing medium. Frozen tissue blocks were cut into 5 μm sections and slides prepared. A primary antibody against PECAM-1 was added at a 1:200 dilution along with anti-Ki67 (1:350 dilutions) and incubated at 37° C. for 1 hour. Slides were then washed and a Cy3 conjugated secondary antibody was added at a 1:250 dilution along with anti-rabbit Ig antibody at a 1:150 dilution and incubated at room temperature for 1 hour. Slides were once again washed and mounted with cover slips using Vectashield DAPI. […] Cellular proliferation was determined as the ratio between regions positive for Ki67 and DAPI positive area.

[11] = tested on: C2C12 myoblast cells; conditions: hypoxic conditions
[12] = cardiovascular development and function, skeletal muscle development, tissue development
[13] = cellular assembly and organization, carbohydrate metabolism, molecular transport
[14] = day 3, 165 μg/kg twice daily i.p., vs PBS
[15] = day 3, Ingenuity network analysis
[16] = day 7, 165 μg/kg twice daily i.p., vs PBS
[17] = inflammatory response, neurological disease, cellular development

In the case of `O=NO` [sodium nitrite], the “nitrite reduction to NO, concentration dependence” value [1] is reported as “reduced nitrite to NO at lower concentrations of exogenous nitrite”, the “nitrite reduction to NO” value ([1]; hypoxic conditions (1% oxygen)) is reported as “reduced nitrite to NO” and the “DAF fluorescence (NO formation)” value ([2]; higher concentrations of exogenous nitrite required) is reported as “large increases in DAF fluorescence”. The “nitrite reduction to NO” value ([2]; hypoxic conditions (1% oxygen)) was “reduced nitrite to NO”, the “blood flow in ischemic hind limbs compared with PBS-treated control animals” value ([3]; all time points analyzed) was “significantly greater” and the “blood flow in ischemic hind limbs relative to preligation” value ([3]; by the end of the study) was “approached preligation levels”. The “ischemic hind-limb blood flow” value ([3]; treatment delayed to five days after surgery) was “restored”, the body weight ([4]; delayed chronic treatment (FIG. 18A)) was “did not alter” and the blood glucose levels ([4]; delayed chronic treatment (FIG. 18B)) was “did not alter”. For the same molecule, the serum cholesterol ([4]; delayed chronic treatment (FIG. 19A)) was “significantly decreased”, the “serum LDL” value ([4]; delayed chronic treatment (FIG. 19B)) was “significantly decreased” and the “genes enhanced, FIG. 2 network” value ([5]; antigen presentation, cell mediated immunity, humoral mediated immunity) was “calsequestrin 2, GST alpha 5, and solute carrier family member 25”. The “genes inhibited, FIG. 6 network” value ([5]; cancer, nervous system development and function, tissue morphology) was “glycerol-3-phosphate dehydrogenase and protein phosphatase 2, reg subunit B”, the “genes enhanced, FIG. 3 network” value [5, 12] was “CXCR6, VE-cadherin, DIX domain containing 1, myosin, heavy chain 2, myosin, light chain 2, myosin, light chain 4, myosin, light chain 9, P2rY2, paired like homeodomain 2, troponin C, type 1, troponin T, type 2 and vitronectin” and the “genes inhibited, FIG. 3 network” value [5, 12] was “Rho Gtpase activating protein 17, CCR5, CXCL12, CXCL7, formin binding protein 1, G protein coupled receptor 65, 5-HT receptor 2B, serine/threonine kinase 17b and thrombospondin 2”. For the same molecule, the “genes enhanced, FIG. 1 network” value ([5]; cardiovascular system development and function, tissue morphology, carbohydrate metabolism) was “flavin containing monoxygenase 5, smoothelin like 1, mysoin heavy chain 7, CUB zona pellucida like domains 1 and small proline rich protein 1A”, the “genes enhanced, FIG. 4 network” value [5, 13] was “cyclin M4, EH domain containing 2, myosin heavy chain 7, myosin light chain 9 regulatory, popeye domain containing 2 and TEA domain family member 4” and the “genes inhibited, FIG. 4 network” value [5, 13] was “adipose differentiated-related protein, chitinase 3-like 3, kinesin family member 20B, leukocyte specific transcript 1, RNA binding motif protein 47 and sorting nexin 6”. For the same molecule, the genes down-regulated [5, 14] was 346 genes, the genes up-regulated [5, 14] was 111 genes and the “expression of genes associated with innate and acquired immune responses (FIG. 1)” value [5, 15] was “inhibited”. The “expression of genes involved in antigen presentation, cell mediated immunity, and humoral mediated immunity (FIG. 2)” value [5, 15] was “altered”, the “expression of genes involved in cardiovascular development and function, skeletal muscle development, and tissue development (FIG. 3)” value [5, 15] was “altered” and the “expression of genes involved in cardiovascular system development and function, tissue morphology, and carbohydrate metabolism (FIG. 1)” value [5, 15] was “enhanced”. The “expression of genes involved in cellular assembly and organization, carbohydrate metabolism and molecular transport (FIG. 4)” value [5, 15] was “altered”, the “expression of genes involved in inflammatory response, neurological disease and cellular development (FIG. 5)” value [5, 15] was “altered” and the “distinct gene expression profiles significantly altered” value ([5]; day 3 of ischemia, 165 μg/kg twice daily i.p., vs PBS, minimal 2-fold difference) was 457. The “expression of genes associated with tissue remodeling” value ([5]; day 7) was “enhanced”, the genes down-regulated [5, 16] was 55 genes and the genes up-regulated [5, 16] was 219 genes. For the same molecule, the “expression of genes involved in cancer, nervous system development and function and tissue morphology (FIG. 6)” value ([5]; day 7, Ingenuity network analysis) was “altered”, the “genes with differentially impacted expression profile” value ([5]; day 7 of ischemia, 165 μg/kg twice daily i.p., vs PBS) was 274 genes and the “genes enhanced, FIG. 5 network” value [5, 17] was “glycogen syntase 1 (muscle), kin of IRRE like 3, solute carrier family 16, member 3, solute carrier family 8, member 3 and uridine-cytidine kinase 2”. For the same molecule, the “genes inhibited, FIG. 5 network” value [5, 17] was “C-type lectin domain family 5, A, FERM domain containing 4B, receptor (G protein coupled) activity modifying protein 2, signal-regulatory protein beta 1, solute carrier family 15, member 3 and zinc finger E-box binding homeobox 2”, the “myogenin mRNA levels” value ([5]; ischemic mouse hindlimb gastrocnemius muscle, nitrite-treated animals (FIG. 25A)) was “significantly increased” and the arteriogenesis [6] was “significantly increased”. For the same molecule, the digit loss [7] was “no digit loss”, the necrosis [7] was “minimal necrosis” and the “levels of NO” value ([8]; 0.01 uM sodium nitrite, only in hypoxic conditions (FIG. 24B)) was “significantly increased”. For the same molecule, the NO levels ([8]; 100 uM sodium nitrite (FIG. 24A)) was “did not alter”, the “intracellular NO levels” value [9] was “lower concentrations, but not higher concentrations, of sodium nitrite resulted in a significant increase” and the epithelial cell proliferation [10] was “but not non-ischemic tissues”. The “myogenin mRNA” value ([11]; decreasing levels of sodium nitrite, inversely correlated with nitrite concentration) was “dose-dependent increase” and the “levels of myogenin mRNA” value ([11]; lowest dose 0.01 uM sodium nitrite) was “highest”.
